These are literature values, as cited in patent US8226980B2, “Orally disintegrating solid dosage forms comprising progestin and methods of making and using thereof” (Teva Women's Health, Inc., priority 2006, dated 2012).

The structures appear in SMILES notation. Where two headings read alike, the source gives them in different places.

The conditions of this data set: for Dose roughly equivalent to 0.050 mg of levonorgestrel: in a contraceptive regimen.

Turning to `C#CC1(O)CC[C@H]2[C@@H]3CCC4=CC(=O)CC[C@@H]4[C@H]3CC[C@@]21CC` (mixture of isomers) [dl-Norgestrel], the “Dose roughly equivalent to 0.050 mg of levonorgestrel” value (“Dose roughly equivalent to 0.050 mg” below) is listed as “about 0.100 mg”. Further, the “Norethindrone Equivalent* Dose” value (progestin Dose 0.30 mg) is 0.45 mg. Further, the “Norethindrone Equivalent* Dose” value (progestin Dose 0.50 mg) is reported as 0.75 mg.

For `C#C[C@]1(O)CC[C@H]2[C@@H]3CCC4=CC(=O)CC[C@@H]4[C@H]3C(=C)C[C@@]21CC` [3-ketodesogestrel], the “Dose roughly equivalent to 0.050 mg” value is reported as “about 0.050 mg”.

As for `C#C[C@]1(OC(C)=O)CC[C@H]2[C@@H]3CCC4=C[C@@H](OC(C)=O)CC[C@@H]4[C@H]3CC[C@@]21C` [Ethynodiol diacetate], the “Norethindrone Equivalent* Dose” value (progestin Dose 1.00 mg) is 1.00 mg.

As for `C#C[C@]1(O)CCC2C3CCC4=CC(=O)CCC4C3CCC21CC` (stereo partly drawn) [Levonorgestrel, 18,19-Dinorpregn-4-en-20-yn-3-one-13-ethyl-17-hydroxy-, (17α)-(−)-], the “Norethindrone Equivalent* Dose” value is 0.35 mg (progestin Dose 0.10 mg) and 0.52 mg (progestin Dose 0.15 mg).

For `C#C[C@]1(OC(C)=O)CC[C@H]2[C@@H]3CCC4=CC(=O)CC[C@@H]4[C@H]3CC[C@@]21C` [Norethindrone acetate], the “Dose roughly equivalent to 0.050 mg” value is listed as “about 0.175 mg”. For the setting “progestin Dose 0.40 mg”, the “Norethindrone Equivalent* Dose” value is on record as 0.40 mg. Further, the “Norethindrone Equivalent* Dose” value (progestin Dose 0.50 mg) is on record as 0.50 mg. The “Norethindrone Equivalent* Dose” value (progestin Dose 0.60 mg) is given as 0.60 mg. The “Norethindrone Equivalent* Dose” value (progestin Dose 1.00 mg) was 1.00 mg. The “Norethindrone Equivalent* Dose” value (progestin Dose 1.50 mg) is listed as 1.50 mg. Also, the “Norethindrone Equivalent* Dose” value (progestin Dose 2.50 mg) was 2.50 mg.

On to `C#C[C@]1(O)CC[C@H]2[C@@H]3CCC4=CC(=O)CC[C@@H]4[C@H]3CC[C@@]21C` [Norethindrone], for which the “Norethindrone Equivalent* Dose” value (progestin Dose 1.00 mg) was 1.00 mg, the “Norethindrone Equivalent* Dose” value (progestin Dose 2.00 mg) is reported as 2.00 mg and the “Norethindrone Equivalent* Dose” value (progestin Dose 10.00 mg) was 10.00 mg.

`C#C[C@]1(O)CC[C@H]2[C@@H]3CCC4=C(CCC(=O)C4)[C@H]3CC[C@@]21C` [Norethynodrel]: the “Norethindrone Equivalent* Dose” value reads like this: (progestin Dose 2.50 mg) 2.50 mg; (progestin Dose 5.00 mg) 5.00 mg; (progestin Dose 9.85 mg) 9.85 mg.

Take `C#C[C@]1(O)CC[C@H]2[C@@H]3CCC4=CCCC[C@@H]4[C@H]3C(=C)C[C@@]21CC` [desogestrel]: the “Dose roughly equivalent to 0.050 mg” value is listed as “about 0.050 mg”.

Take `C#C[C@]1(O)C=C[C@H]2[C@@H]3CCC4=CC(=O)CC[C@@H]4[C@H]3CC[C@@]21CC` [gestodene]: the “Dose roughly equivalent to 0.050 mg” value is on record as “about 0.035 mg”.
